Assay results as given in the kinase profiling compilation of Christmann-Franck et al. (2016).

How the values were obtained:
Test in all cases: KINOMEscan competition binding
Details in all cases: compound 10.0 µM
[1] = target: CLK2 (human) (UniProt P49760)
[2] = target: BMPR2 (human) (UniProt Q13873)
[3] = target: PIK3C2B (human) (UniProt O00750)
[4] = target: TYRO3 (human) (UniProt Q06418)
[5] = target: MARK4 (human) (UniProt Q96L34)
[6] = target: RPS6KA1 KD2 (human) (UniProt Q15418)
[7] = target: PAK3 (human) (UniProt O75914)
[8] = target: TAOK2 (human) (UniProt Q9UL54)
[9] = target: MAPKAPK2 (human) (UniProt P49137)
[10] = target: CDKL5 (human) (UniProt O76039)
[11] = target: IRAK4 (human) (UniProt Q9NWZ3)
[12] = target: CDK4 CCND1 (human) (UniProt P11802+P24385)
Chain of CDK4 CCND1 (human) (P11802 whole entry, looked up): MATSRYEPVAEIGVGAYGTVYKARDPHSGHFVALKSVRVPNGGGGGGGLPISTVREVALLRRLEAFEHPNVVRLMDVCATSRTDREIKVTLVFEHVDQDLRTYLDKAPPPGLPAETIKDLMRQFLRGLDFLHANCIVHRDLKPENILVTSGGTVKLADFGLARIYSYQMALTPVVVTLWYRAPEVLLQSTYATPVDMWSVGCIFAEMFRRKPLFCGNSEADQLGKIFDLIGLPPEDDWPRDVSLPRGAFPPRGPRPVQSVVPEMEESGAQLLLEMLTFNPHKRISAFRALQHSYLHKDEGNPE
Chain of CDK4 CCND1 (human) (P24385 whole entry, looked up): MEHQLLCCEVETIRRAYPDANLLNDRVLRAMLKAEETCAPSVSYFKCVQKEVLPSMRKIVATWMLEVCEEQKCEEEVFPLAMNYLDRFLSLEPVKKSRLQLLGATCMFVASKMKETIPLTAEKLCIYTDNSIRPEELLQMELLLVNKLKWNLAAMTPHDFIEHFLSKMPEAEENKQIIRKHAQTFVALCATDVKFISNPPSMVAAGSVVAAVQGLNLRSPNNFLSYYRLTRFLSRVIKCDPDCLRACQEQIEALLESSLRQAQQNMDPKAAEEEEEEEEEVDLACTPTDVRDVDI

[13] = target: PTK2 (human) (UniProt Q05397)
[14] = target: WEE2 (human) (UniProt P0C1S8)
[15] = target: FYN (human) (UniProt P06241)
[16] = target: SRPK1 (human) (UniProt Q96SB4)
[17] = target: STK25 (human) (UniProt O00506)
[18] = target: MAP4K1 (human) (UniProt Q92918)
[19] = target: PIP4K2C (human) (UniProt Q8TBX8)
[20] = target: HIPK1 (human) (UniProt Q86Z02)
[21] = target: OXSR1 (human) (UniProt O95747)
[22] = target: CSK (human) (UniProt P41240)
[23] = target: CDK16 (human) (UniProt Q00536)
[24] = target: STK36 (human) (UniProt Q9NRP7)
[25] = target: PRKACB (human) (UniProt P22694)
[26] = target: ACVR1B (human) (UniProt P36896)
[27] = target: TRPM6 (human) (UniProt Q9BX84)
Chain of TRPM6 (human) (Q9BX84 whole entry, looked up): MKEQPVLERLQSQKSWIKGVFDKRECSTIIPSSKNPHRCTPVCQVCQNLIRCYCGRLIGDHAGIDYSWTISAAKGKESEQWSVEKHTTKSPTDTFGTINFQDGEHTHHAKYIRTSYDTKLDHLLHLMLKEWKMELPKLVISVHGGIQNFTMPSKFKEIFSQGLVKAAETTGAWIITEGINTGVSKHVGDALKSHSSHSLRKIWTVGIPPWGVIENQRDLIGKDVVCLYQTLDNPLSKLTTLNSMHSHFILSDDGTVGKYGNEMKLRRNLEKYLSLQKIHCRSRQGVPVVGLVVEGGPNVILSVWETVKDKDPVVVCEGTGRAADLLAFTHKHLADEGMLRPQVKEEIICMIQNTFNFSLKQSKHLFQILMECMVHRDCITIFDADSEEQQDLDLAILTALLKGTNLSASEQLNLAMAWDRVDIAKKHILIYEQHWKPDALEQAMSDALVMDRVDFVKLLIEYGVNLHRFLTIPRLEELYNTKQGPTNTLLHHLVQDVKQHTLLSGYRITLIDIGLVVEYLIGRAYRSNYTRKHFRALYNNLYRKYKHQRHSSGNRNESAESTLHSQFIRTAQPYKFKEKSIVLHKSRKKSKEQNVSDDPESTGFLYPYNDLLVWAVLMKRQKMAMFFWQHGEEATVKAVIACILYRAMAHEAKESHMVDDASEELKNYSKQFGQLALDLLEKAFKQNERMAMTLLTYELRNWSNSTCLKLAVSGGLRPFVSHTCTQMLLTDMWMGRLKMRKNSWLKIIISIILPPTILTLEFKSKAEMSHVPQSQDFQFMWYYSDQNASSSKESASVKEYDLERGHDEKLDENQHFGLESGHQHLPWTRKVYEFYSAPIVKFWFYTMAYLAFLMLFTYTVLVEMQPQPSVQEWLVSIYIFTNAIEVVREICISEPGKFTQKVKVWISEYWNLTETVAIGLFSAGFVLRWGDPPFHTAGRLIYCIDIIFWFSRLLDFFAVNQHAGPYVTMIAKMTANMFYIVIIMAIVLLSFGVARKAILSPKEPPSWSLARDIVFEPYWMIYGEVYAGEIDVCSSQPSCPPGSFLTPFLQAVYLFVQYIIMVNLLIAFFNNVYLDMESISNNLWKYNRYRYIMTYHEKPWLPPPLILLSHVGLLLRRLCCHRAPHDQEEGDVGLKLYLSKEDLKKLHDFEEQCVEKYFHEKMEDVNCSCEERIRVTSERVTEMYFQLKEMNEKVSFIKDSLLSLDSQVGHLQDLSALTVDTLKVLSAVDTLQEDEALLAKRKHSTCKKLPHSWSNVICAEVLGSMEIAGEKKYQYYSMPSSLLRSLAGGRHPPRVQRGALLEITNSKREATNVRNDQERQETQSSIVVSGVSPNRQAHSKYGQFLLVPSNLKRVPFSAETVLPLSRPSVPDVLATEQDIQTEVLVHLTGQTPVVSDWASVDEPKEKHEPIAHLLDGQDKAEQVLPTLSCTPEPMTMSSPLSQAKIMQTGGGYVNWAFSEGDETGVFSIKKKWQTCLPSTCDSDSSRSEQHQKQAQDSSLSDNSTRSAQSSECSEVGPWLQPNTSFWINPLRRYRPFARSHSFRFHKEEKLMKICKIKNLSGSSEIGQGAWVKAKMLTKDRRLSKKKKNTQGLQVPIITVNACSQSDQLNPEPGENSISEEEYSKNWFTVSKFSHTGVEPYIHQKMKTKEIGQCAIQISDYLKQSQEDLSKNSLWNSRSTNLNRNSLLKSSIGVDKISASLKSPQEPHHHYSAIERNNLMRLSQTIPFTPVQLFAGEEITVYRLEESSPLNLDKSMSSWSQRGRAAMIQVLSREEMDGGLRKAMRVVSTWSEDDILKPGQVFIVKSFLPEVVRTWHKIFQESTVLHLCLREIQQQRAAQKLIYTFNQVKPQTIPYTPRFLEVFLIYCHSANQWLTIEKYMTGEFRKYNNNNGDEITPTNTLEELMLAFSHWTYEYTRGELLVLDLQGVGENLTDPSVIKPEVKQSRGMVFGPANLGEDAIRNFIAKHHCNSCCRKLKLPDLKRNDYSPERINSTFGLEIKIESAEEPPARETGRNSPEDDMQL

[28] = target: MAPK15 (human) (UniProt Q8TD08)
Chain of MAPK15 (human) (Q8TD08 whole entry, looked up): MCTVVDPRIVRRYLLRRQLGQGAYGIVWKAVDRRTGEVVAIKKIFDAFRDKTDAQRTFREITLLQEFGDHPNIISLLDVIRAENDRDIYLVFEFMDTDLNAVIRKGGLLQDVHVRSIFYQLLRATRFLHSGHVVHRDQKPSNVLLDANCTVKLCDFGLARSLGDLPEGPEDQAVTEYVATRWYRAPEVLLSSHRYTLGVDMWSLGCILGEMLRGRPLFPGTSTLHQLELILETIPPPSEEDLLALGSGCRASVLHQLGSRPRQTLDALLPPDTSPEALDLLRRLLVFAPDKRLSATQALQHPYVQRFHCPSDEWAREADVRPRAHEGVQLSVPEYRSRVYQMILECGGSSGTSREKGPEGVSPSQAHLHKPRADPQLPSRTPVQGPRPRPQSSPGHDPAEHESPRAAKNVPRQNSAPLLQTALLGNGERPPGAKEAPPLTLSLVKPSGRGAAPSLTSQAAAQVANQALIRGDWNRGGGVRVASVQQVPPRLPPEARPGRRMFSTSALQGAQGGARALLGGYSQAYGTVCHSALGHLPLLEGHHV

[29] = target: MAP2K1 (human) (UniProt Q02750)
[30] = target: IGF1R (human) (UniProt P08069)
[31] = target: EPHA3 (human) (UniProt P29320)
[32] = target: FGR (human) (UniProt P09769)
[33] = target: CDC42BPB (human) (UniProt Q9Y5S2)
[34] = target: PRKCD (human) (UniProt Q05655)
[35] = target: STK32C (human) (UniProt Q86UX6)
[36] = target: MAP4K3 (human) (UniProt Q8IVH8)
[37] = target: MAP3K13 (human) (UniProt O43283)
Chain of MAP3K13 (human) (O43283 whole entry, looked up): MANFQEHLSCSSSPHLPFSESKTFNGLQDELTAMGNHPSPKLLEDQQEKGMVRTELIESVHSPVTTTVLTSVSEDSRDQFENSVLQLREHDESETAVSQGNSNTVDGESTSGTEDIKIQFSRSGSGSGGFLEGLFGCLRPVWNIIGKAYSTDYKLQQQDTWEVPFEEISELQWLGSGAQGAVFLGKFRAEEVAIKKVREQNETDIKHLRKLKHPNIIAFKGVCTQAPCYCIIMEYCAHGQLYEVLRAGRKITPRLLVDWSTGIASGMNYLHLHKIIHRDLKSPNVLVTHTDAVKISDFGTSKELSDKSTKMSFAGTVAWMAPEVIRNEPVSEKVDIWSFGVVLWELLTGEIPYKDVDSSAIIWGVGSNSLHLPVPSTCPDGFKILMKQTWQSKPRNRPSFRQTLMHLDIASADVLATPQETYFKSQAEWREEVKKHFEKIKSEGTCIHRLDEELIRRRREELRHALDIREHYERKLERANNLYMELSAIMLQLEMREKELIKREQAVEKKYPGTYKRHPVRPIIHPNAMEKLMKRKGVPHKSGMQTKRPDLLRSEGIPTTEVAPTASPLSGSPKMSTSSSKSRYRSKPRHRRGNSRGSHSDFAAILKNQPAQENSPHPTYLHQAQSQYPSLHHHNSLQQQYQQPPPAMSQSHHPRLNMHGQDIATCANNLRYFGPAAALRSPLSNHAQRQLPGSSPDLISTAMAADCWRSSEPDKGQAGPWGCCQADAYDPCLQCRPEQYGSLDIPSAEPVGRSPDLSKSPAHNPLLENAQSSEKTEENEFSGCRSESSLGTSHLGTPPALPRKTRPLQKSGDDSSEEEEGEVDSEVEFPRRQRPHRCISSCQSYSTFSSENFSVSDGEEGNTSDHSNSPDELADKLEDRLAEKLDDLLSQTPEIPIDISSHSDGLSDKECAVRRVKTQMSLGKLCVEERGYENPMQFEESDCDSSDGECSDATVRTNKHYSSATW

[38] = target: PRKCQ (human) (UniProt Q04759)
[39] = target: PIP5K1A (human) (UniProt Q99755)
Chain of PIP5K1A (human) (Q99755 whole entry, looked up): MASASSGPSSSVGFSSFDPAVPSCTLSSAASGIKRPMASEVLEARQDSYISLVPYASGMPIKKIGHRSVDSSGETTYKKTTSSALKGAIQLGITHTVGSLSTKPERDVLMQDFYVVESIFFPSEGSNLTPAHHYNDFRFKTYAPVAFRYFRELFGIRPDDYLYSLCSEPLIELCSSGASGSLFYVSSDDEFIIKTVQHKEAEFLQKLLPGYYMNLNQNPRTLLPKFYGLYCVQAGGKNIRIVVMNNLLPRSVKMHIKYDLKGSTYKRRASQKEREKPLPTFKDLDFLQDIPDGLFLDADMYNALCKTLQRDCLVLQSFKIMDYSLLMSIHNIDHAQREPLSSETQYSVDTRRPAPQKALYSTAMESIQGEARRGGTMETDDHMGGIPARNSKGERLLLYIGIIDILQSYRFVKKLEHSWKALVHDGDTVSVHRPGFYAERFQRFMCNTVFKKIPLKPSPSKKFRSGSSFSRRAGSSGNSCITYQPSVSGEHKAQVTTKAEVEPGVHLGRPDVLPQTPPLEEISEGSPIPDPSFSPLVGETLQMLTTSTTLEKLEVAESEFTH

[40] = target: TIE1 (human) (UniProt P35590)

CCCS(=O)(=O)Nc1ccc(F)c(C(=O)c2c[nH]c3ncc(Cl)cc23)c1F
kinase still bound, per cent of control [1]: 10%
kinase still bound, per cent of control [2]: 67%
kinase still bound, per cent of control [3]: 84%
kinase still bound, per cent of control [4]: 100%
kinase still bound, per cent of control [5]: 72%
kinase still bound, per cent of control [6]: 75%
kinase still bound, per cent of control [7]: 34%
kinase still bound, per cent of control [8]: 43%
kinase still bound, per cent of control [9]: 100%
kinase still bound, per cent of control [10]: 92%
kinase still bound, per cent of control [11]: 86%
kinase still bound, per cent of control [12]: 64%
kinase still bound, per cent of control [13]: 51%
kinase still bound, per cent of control [14]: 100%
kinase still bound, per cent of control [15]: 11%
kinase still bound, per cent of control [16]: 100%
kinase still bound, per cent of control [17]: 53%
kinase still bound, per cent of control [18]: 70%
kinase still bound, per cent of control [19]: 100%
kinase still bound, per cent of control [20]: 36%
kinase still bound, per cent of control [21]: 24%
kinase still bound, per cent of control [22]: 2.7%
kinase still bound, per cent of control [23]: 68%
kinase still bound, per cent of control [24]: 18%
kinase still bound, per cent of control [25]: 100%
kinase still bound, per cent of control [26]: 98%
kinase still bound, per cent of control [27]: 99%
kinase still bound, per cent of control [28]: 97%
kinase still bound, per cent of control [29]: 0.8%
kinase still bound, per cent of control [30]: 91%
kinase still bound, per cent of control [31]: 65%
kinase still bound, per cent of control [32]: 8.4%
kinase still bound, per cent of control [33]: 100%
kinase still bound, per cent of control [34]: 100%
kinase still bound, per cent of control [35]: 86%
kinase still bound, per cent of control [36]: 91%
kinase still bound, per cent of control [37]: 100%
kinase still bound, per cent of control [38]: 79%
kinase still bound, per cent of control [39]: 100%
kinase still bound, per cent of control [40]: 61%
